Series [1] concerns Me 191-I/GG (Primary) melanoma cells. The series is described as follows: MTS assay of cell viability after BQ788. Type of series: cell-based. The note with it: incubation with BQ788 for seven days; Primary line. The method, then:
Cells were cultured on a matrigel matrix that was histologically examined after two weeks (A-F). While the primary melanoma cells remained on top of the gel only (A and B), a fraction of the Cut-met cells invaded the gel (C and D) and the LN-met cells invaded the matrix extensively (E and F). Cell lysates of the three lines were subjected to western blot analysis using an anti-ETRB Ab (G) and an anti-tubulin Ab (H). Untreated, control (vehicle treated), and BQ788 treated cells were subjected to MTS assay to quantify any reduction in cell number. The mean values were calculated and plotted (I) as the percentage of the vehicle treated value+/− SEM.
Human melanoma cell lines Me191-1/GG (Primary), Me 190/DA (Cut-met), Me 275/EP (LN-met) were obtained from the Ludwig Institute (Epalinges, Switzerland) and SK-MEL-28 was obtained from the American Tissue Culture Collection (ATCC). […] After removal of the inserts, MTS solution was added to the well to quantify the cells that migrated through the insert and were attached to the bottom of the well by measuring the OD at 492 nm (Promega). […]
To address the relationship between the level of progression of human melanoma and responsiveness to BQ788 treatment, 3 cell lines that had been grown in culture for a restricted number of passages were used. […] This effect was quantified using the MTS assay.

The next series concerns PARP-3. Put plainly: Real-time RT-PCR of PARP-3 transcripts. The settings on record: primary melanoma cells; BQ788 treatment. Type of series: cell-based, human. Here is the method: Equal amounts of RNA from cells that were treated with BQ788 for 3 days were subjected to real-time RT-PCR analysis for the detection of BCL-2A1 (A) and ADP ribosyltransferase 3 (B) transcripts. Total amounts are represented in A while relative (to control) values are shown in B. Differences in expression levels are shown as x fold decrease and are statistically significant (p<0.05) unless a column in marked as non significant (N.S.). Lysates of BQ788 treated cells and controls were subjected to an apoptosis ELISA detection test (C). SK-MEL-28 cells were cultured with pan caspase inhibitor (D) or with caspase 6 inhibitor (E) with or without BQ788 for 2.5 days. […] SK-MEL-28 cells were cultured for 3 days in the presence of BQ788 and assayed for caspase 6 activity (F). The difference between the columns is statistically significant (p<0.05).
RNA was prepared from the different cell lines in different culture conditions using SV total RNA isolation kit (Promega) according to the manufacturer's protocol. For each sample RNA concentration was determined using the total RNA nano procedure of an Agilent bioanalyzer. […] A standard curve of Ct versus RNA quantity was established and accordingly the Ct in the unknown samples was correlated to quantity of transcript. […]

A further series concerns ETRB. The series is described as follows: Real-time RT-PCR of ETRB transcripts. Type of series: cell-based, human. The settings on record: BQ788 treatment. The method, then: Real-time RT-PCR detection of ETRB transcripts (see legends FIG. 2) (A). ETRB protein expression compared to tubulin in SK-MEL-28 cells after 3, 5 and 7 days with (+) or without (−) BQ788 (B).
RNA was prepared from the different cell lines in different culture conditions using SV total RNA isolation kit (Promega) according to the manufacturer's protocol. For each sample RNA concentration was determined using the total RNA nano procedure of an Agilent bioanalyzer. A stock of SK-MEL-28 RNA aliquots was prepared containing 10, 20, 50, 100, 200, 500 and 1000 ng/12 μl for use as a standard curve and kept in −80° C. For the experimental unknown samples, a stock of 100 ng/12 μl RNA aliquots from each cell line and condition was prepared and stored at −80° C. For each real-time experiment one series of standard curve and unknown experimental series of aliquots was put on ice for use. Complementary DNA was prepared by adding to each tube 0.5 μl of random hexamers (Promega) and 1 μl of 10 mM dNTP mix (Promega) and incubating at 65° C. for 5 min. 4 μl of 5× M-MLV buffer (Promega), 1 μl of the RNase inhibitor RNasin (Promega) and 1 μl of M-MLV RT RNase H (Promega) were then added and the solution was incubated at 42° C. for 50 min followed by 15 min at 70° C. For real time reactions 15 μl of each cDNA sample were transferred to 3 wells in a 386 well plate. To each well we added 10 μl of TaqMan universal PCR master mix (Applied Biosystems), 1 μl of primers+probe mix (Assays-on-Demand from Applied Biosystems: EDNRB Hs00240747, BCL-2A1 Hs00187845, PARP-3 Hs00154151, VEGF Hs00173626, HIF-1α Hs00153153 and Gravin Hs00374507) and 4 μl of nuclease free water (Promega). Wells containing water instead of cDNA served as negative controls. The samples were subjected to 40 cycles of 15 sec at 95° C. and 1 min at 60° C. A standard curve of Ct versus RNA quantity was established and accordingly the Ct in the unknown samples was correlated to quantity of transcript.
(In qPCR the cycle at which signal appears reflects the starting amount.)

For series [2] the following is noted: hypertension patients and healthy volunteers; cited from earlier work.

With `CCCC[C@@H](NC(=O)[C@@H](Cc1cn(C(=O)OC)c2ccccc12)NC(=O)[C@H](CC(C)(C)C)NC(=O)N1[C@H](C)CCC[C@@H]1C)C(=O)O` [BQ788, N-cis-2,6-dimethylpiperidinocarbonyl-L-γ-methylleucyl-D-1-methoxycarbonyltrptophanyl-D-norleucine], in series [1], the “reduction in cell number” value was 12%. Besides, the PARP-3 levels entry in the series on PARP-3 is “did not show a decrease”. The entries for the “reduction in ETRB mRNA expression” value in the series on ETRB (Cut-met line), in the series with ETRB (LN-met line) and with ETRB (SK-MEL-28 cells) were 1.49 fold, 1.85 fold and 11 fold, respectively. The “ETRB expression level change” value with ETRB (primary melanoma cells) was “did not show any change”. The “toxicity in clinical trials” value in series [2] was “not found to be toxic”.

Source of the values: patent publication US20060094676A1, “Compositions and methods for treating cancer using compositions comprising an inhibitor of endothelin receptor activity” (priority 2004, published 2006).
